# Data as given in ChEMBL document CHEMBL2074036, “Renal transport of organic compounds mediated by mouse organic anion transporter 3 (mOat3): further substrate specificity of mOat3” (Drug Metab Dispos, 2004).
# T1: Oat3 (organic anion transporter 3) (Mus musculus, UniProt O88909)
# T1 sequence (O88909 whole entry): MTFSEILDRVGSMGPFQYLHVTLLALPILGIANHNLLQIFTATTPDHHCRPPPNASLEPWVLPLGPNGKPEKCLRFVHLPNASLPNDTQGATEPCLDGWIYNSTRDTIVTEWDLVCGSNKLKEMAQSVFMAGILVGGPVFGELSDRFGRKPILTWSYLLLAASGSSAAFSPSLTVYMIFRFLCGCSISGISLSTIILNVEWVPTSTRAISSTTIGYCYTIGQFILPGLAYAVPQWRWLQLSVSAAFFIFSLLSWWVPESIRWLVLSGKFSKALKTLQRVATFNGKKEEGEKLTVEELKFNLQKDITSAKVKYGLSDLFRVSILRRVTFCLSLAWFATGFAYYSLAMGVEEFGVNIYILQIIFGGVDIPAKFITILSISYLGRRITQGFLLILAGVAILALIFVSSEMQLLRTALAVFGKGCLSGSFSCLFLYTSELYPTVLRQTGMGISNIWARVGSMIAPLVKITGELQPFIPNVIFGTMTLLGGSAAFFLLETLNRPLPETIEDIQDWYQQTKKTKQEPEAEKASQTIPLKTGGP
# T2: Organic anion transporter 3 (Mus musculus, UniProt O88909)
# T2 sequence (O88909 whole entry): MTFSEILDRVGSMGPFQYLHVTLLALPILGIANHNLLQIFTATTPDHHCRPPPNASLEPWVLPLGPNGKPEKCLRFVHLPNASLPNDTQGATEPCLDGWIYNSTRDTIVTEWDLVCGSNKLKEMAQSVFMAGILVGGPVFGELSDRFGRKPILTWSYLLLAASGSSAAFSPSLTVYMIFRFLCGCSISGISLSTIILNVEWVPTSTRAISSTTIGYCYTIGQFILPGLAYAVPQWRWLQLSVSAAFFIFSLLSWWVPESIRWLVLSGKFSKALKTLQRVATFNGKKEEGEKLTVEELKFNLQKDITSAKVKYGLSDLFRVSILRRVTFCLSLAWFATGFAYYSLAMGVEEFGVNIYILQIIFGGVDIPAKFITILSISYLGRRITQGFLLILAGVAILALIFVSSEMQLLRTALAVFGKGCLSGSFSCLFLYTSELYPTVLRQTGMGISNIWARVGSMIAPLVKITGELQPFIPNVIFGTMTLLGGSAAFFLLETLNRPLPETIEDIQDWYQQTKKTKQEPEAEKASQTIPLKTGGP
# Legend:
# [1] = biological target: T1, Oat3 (organic anion transporter 3); assay: TP_TRANSPORTER: inhibition of PHA uptake (PHA: 1000uM) by P-aminohippuric acid at a concentration of 10uM in mOat3-expressing oocytes; format: functional, cell-based, Oocyte; design: scale not given: the % may be the effect or the level left; conditions: probe PHA (1000 uM), read-out: Activity
# [2] = biological target: T2, Organic anion transporter 3; assay: (§1) TP_TRANSPORTER: uptake in mOat3-expressing oocytes; format: functional, cell-based; conditions: oocyte
# [3] = biological target: T1, Oat3 (organic anion transporter 3); assay: TP_TRANSPORTER: inhibition of PHA uptake (PHA: 1000uM) in mOat3-expressing oocytes; format: functional, cell-based, Oocyte; design: scale not given: the % may be the effect or the level left; conditions: probe PHA (1000 uM)
# [4] = substrate: Sc1ncnc2nc[nH]c12; assay: as §1; format: functional, cell-based, Oocyte
# [5] = substrate: O=c1[nH]cc(F)c(=O)[nH]1; assay: as §1; format: functional, cell-based, Oocyte
# [6] = substrate: C[N+](C)(C)C[C@H](O)CC(=O)[O-]; assay: as §1; format: functional, cell-based, Oocyte
Molecule,Activity [2],Activity [3],further results
Nc1ccc(C(=O)NCC(=O)O)cc1 [AMINOHIPPURIC ACID],substrate [],,activity at 10 µM [1]: 20%
CCOC(=O)[C@H](CCc1ccccc1)N[C@@H](C)C(=O)N1CCC[C@H]1C(=O)O,,45%,
Oc1ncnc2[nH]ncc12 [ALLOPURINOL],substrate [],,
CN1C(C(=O)Nc2ccccn2)=C(O)c2sccc2S1(=O)=O [TENOXICAM],,55%,
CCCCC[C@H](O)/C=C/[C@@H]1[C@@H](C/C=C\CCCC(=O)O)[C@@H](O)C[C@H]1O [DINOPROST],substrate [],,
CC(C)Cc1ccc(C(C)C(=O)O)cc1 (stereo not drawn) [IBUPROFEN],,80%,
CCCCC[C@H](O)/C=C/[C@H]1[C@H](O)CC(=O)[C@@H]1C/C=C\CCCC(=O)O [DINOPROSTONE],substrate [],,
C[C@]12CC[C@@H]3c4ccc(OS(=O)(=O)O)cc4CC[C@H]3[C@@H]1CCC2=O [ESTRONE SULFURIC ACID],substrate [],,
CN/C(=N/CCSCc1nc[nH]c1C)NC#N [CIMETIDINE],,65%,
Organic anion transporter 3 (Mus musculus) (protein) MTFSEILDRVGSMGPFQYLHVTLLALPILGIANHNLLQIFTATTPDHHCRPPPNASLEPWVLPLGPNGKPEKCLRFVHLPNASLPNDTQGATEPCLDGWIYNSTRDTIVTEWDLVCGSNKLKEMAQSVFMAGILVGGPVFGELSDRFGRKPILTWSYLLLAASGSSAAFSPSLTVYMIFRFLCGCSISGISLSTIILNVEWVPTSTRAISSTTIGYCYTIGQFILPGLAYAVPQWRWLQLSVSAAFFIFSLLSWWVPESIRWLVLSGKFSKALKTLQRVATFNGKKEEGEKLTVEELKFNLQKDITSAKVKYGLSDLFRVSILRRVTFCLSLAWFATGFAYYSLAMGVEEFGVNIYILQIIFGGVDIPAKFITILSISYLGRRITQGFLLILAGVAILALIFVSSEMQLLRTALAVFGKGCLSGSFSCLFLYTSELYPTVLRQTGMGISNIWARVGSMIAPLVKITGELQPFIPNVIFGTMTLLGGSAAFFLLETLNRPLPETIEDIQDWYQQTKKTKQEPEAEKASQTIPLKTGGP,,,Km [4]: 4.01 µM; Km [5]: 0.0539 µM; Km [6]: 0.0619 µM
